Measurements reported in patent publication US20080090278A1, “METHOD FOR ENHANCING STABILITY OF A COMPOSITION COMPRISING SOLUBLE GLUCOSE DEHYDROGENASE (GDH)” (TOYO BOSEKI KABUSHIKI KAISHA, priority 2006, published 2008).

Key:
[1] = system: recombinant FAD-GDH (rAO-FAD-GDH) derived from Aspergillus oryzae; assay: Thermal stabilization effect of stabilizing agents on rAO-FAD-GDH in solution (Examples 3-6); type: physicochemical; conditions: for thermal stabilization effect on FAD-GDH (in words): 50° C. for 15 minutes, Example 3
Experimental: Enhancement of the thermal stability referred to herein means increasing of a residual ratio (%) of the GDH enzyme kept after giving the treatment with heat at a certain temperature for a certain time period to the composition comprising the GDH enzyme. In the present invention, the activity in the sample stored at 4° C. which is nearly completely kept is made 100%, this is compared with the activity in the GDH solution after giving the treatment with heat at a certain-temperature for a certain time period, and the residual ratio of the enzyme is calculated.
In the method for measuring the activity described in the method for measuring the GDH enzyme activity described later, an activity value (a) of GDH in the solution stored at 4° C. and an activity value (b) of GDH after giving the treatment with heat at a certain temperature for a certain time period were measured, a relative value[(b)/(a)×100] when the activity value (a) was made 100 was calculated. This relative value was made the residual ratio (%). Comparing the presence with the absence of the added compound, when the residual ratio was increased by the addition of the compound, it was determined that the thermal stability was enhanced.
In the present invention, the activity of FAD-dependent GDH is measured as follows.
The reaction-reagent is made by mixing 15.6 mL of the PIPES buffer, 0.2 mL of the DCPIP solution and 4 mL of the D-glucose solution.
(§1) The reaction reagent (3 mL) is preliminarily heated at 37° C. for 5 minutes. The GDH solution (0.1 mL) is added and gently mixed, subsequently the change of absorbance at 600 nm is recorded for 5 minutes using the spectrophotometer controlled to 37° C. using water as the control, and the change of absorbance per one minute (ΔODTEST) is calculated from the linear portion of the record. The solvent in which GDH will be dissolved in place of the blinded GDH solution is added to the reagent mixture, and the change of absorbance (ΔODBLANK) per one minute is measured. The GDH activity is calculated from these values according to the following formula. One unit (U) in the GDH activity is defined as the amount of the enzyme which reduces […] DCPIP for one minute in the presence of 200 mM D-glucose. Activity (U/mL)=[−(ΔODTEST−ΔODBLANK)×3.0×dilution scale]/(16.3×0.1×1.0) In the above formula, 3.0 represents a liquid amount (mL) of the reaction reagent+the enzyme solution, 16.3 represents a millimolar molecular absorbance coefficient (cm^2/μmol) in the condition for measuring this enzyme, 0.1 represents the liquid amount of the enzyme solution (mL) and 1.0 represents a light path length (cm) of the cell.
The study was performed in accordance with the method for measuring the FAD-GDH activity in Test Example 1 described above.
First, 50 mL of an enzyme solution obtained by dissolving the recombinant FAD-GDH (rAO-FAD-GDH)-derived from Aspergillus oryzae obtained in Example 1 at about 2 U/mL in an enzyme dilution solution (50 mM potassium phosphate buffer, pH 5.5, 0.1% Triton X-100) was prepared. Two tubes in which each stabilizing agent described in Table 1 had been added at each final concentration to 0.9 mL of this enzyme solution to make the total volume 1.0 mL were prepared.
In two tubes, one tube was stored at […] and another tube was treated at 50° C. for 15 minutes. Then, the FAD-GDH activity in each tube was measured. The enzyme activity in the tube stored at 4° C. was made 100, and comparing with it, the activity value after being treated at 50° C. for 15 minutes was calculated as the residual activity ratio (%).
The method was in accordance with Example 3 described above.
The methods were in accordance with Example 3 above.

[2] = system: recombinant FAD-GDH (rAT-FAD-GDH) derived from Aspergillus terreus; assay: Thermal stabilization effect of stabilizing agents on rAT-FAD-GDH in solution (Example 9); type: physicochemical; conditions: for Residual activity ratio (%) / GLD activity value (U/ml) 50° C., 15 min: Table 10, buffer 50 mM K-PB, stabilizer at each final concentration described in Table 1; for Residual activity ratio (%): 50° C., 15 min versus 4° C.; for thermal stabilization effect on FAD-GDH (in words): rAT-FAD-GDH, 50° C. for 15 minutes, Example 9
Experimental: as §1, with “D-glucose.” for “D-glucose. Activity (U/mL)=[−(ΔODTEST−ΔODBLANK)×3.0×dilution scale]/(16.3×0.1×1.0) In the above formula, 3.0 represents a liquid amount (mL) of the reaction reagent+the enzyme solution, 16.3 represents a millimolar molecular absorbance coefficient (cm^2/μmol) in the condition for measuring this enzyme, 0.1 represents the liquid amount of the enzyme solution (mL) and 1.0 represents a light path length (cm) of the cell.”
Two tubes in which each stabilizing agent described in Table 1 had been added at each final concentration to 0.9 mL of this enzyme solution to make the total volume 1.0 mL were prepared.
In two tubes, one tube was stored at 4° C. and another tube was treated at 50° C. for 15 minutes. Then, the FAD-GDH activity in each tube was measured. The enzyme activity in the tube stored at 4° C. was made 100, and comparing with it, the activity value after being treated at 50° C. for 15 minutes was calculated as the residual activity ratio (%).

[3] = stabilizer final concentration 1%, rAO-FAD-GDH about 2 U/mL, 50 mM potassium phosphate buffer pH 5.5, 0.1% Triton X-100, 4° C. sample = 100
[4] = stabilizer final concentration 0.10%, rAO-FAD-GDH, pH 5.5

SMILES	Residual activity ratio (%) after treatment at 50° C., 15 min ([1]; stabilizer final concentration 0.50%, rAO-FAD-GDH, pH 5.5) [%]	Residual activity ratio (%) [2] [%]	GLD activity value (U/ml) 50° C., 15 min [2] [U/ml]	thermal stabilization effect on FAD-GDH (in words) ([1]; rAO-FAD-GDH)	thermal stabilization effect on FAD-GDH (in words) [2]	Residual activity ratio (%) after treatment at 50° C., 15 min [1, 3] [%]	Residual activity ratio (%) after treatment at 50° C., 15 min ([1]; stabilizer final concentration 0.20%, rAO-FAD-GDH, pH 5.5) [%]	Residual activity ratio (%) after treatment at 50° C., 15 min ([1]; stabilizer final concentration 0.25%, rAO-FAD-GDH, pH 5.5) [%]	Residual activity ratio (%) after treatment at 50° C., 15 min [1, 4] [%]
CC(C)[C@H](N)C(=O)O [L-valine]	25.5	1.6	0.043						
N.N.O=S(=O)(O)O [Ammonium sulfate]				high effect	high effect				
O=C[C@H](O)[C@@H](O)[C@@H](O)[C@H](O)CO [Galactose]		17.2	0.495	high effect	high effect	60.6			
O=C(O)[C@@H]1CCCN1 [proline]				high effect	high effect				
O=C[C@@H](O)[C@H](O)[C@H](O)CO [D-(−)-arabinose]		2.5	0.069	high effect	high effect	23.0			
O=C([O-])[C@H](O)[C@@H](O)[C@H](O)[C@H](O)CO.[Na+] [sodium gluconate]		3.9	0.111	high effect	high effect	33.5			
OC[C@H]1O[C@H](OCC2O[C@@H](O)[C@H](O)[C@@H](O)[C@@H]2O)[C@H](O)[C@@H](O)[C@H]1O (stereo partly drawn) [a-D-(+)-melibiose]		7.3	0.197	high effect	high effect	59.0			
CNCC(=O)O [Sarcosine]		3.0	0.081	high effect	high effect	25.2			
O=C(O)CCCC(=O)O [Glutaric acid]				high effect	high effect				
O=C[C@H](O)[C@@H](O)[C@H](O)CO [D-(+)-xylose]		18.5	0.516	high effect	high effect	68.5			
O=C([O-])CC(O)(CC(=O)[O-])C(=O)[O-].[Na+].[Na+].[Na+] [Trisodium citrate]				high effect	high effect				
N[C@@H](Cc1ccccc1)C(=O)O [L-phenylalanine]		1.2	0.031				22.3		
CC[C@H](C)[C@H](N)C(=O)O (racemic) [DL-isoleucine]		1.7	0.047					23.4	
N[C@H](CCC(=O)O)C(=O)O [D-glutamic acid]		5.6	0.149	high effect	high effect				23.2
C[C@H](N)C(=O)O [D-a-alanine]		3.2	0.09	high effect	high effect	27.1			
N[C@@H](Cc1ccccc1)C(=O)O [phenylalanine]				high effect	high effect				
N[C@H](Cc1ccccc1)C(=O)O [D-phenylalanine]		2.3	0.062						23.6
N[C@@H](Cc1c[nH]c2ccccc12)C(=O)O [L-triptophan]		1.3	0.034						24.3
OC[C@H]1O[C@@H]2O[C@H]3[C@H](O)[C@@H](O)[C@@H](O[C@H]4[C@H](O)[C@@H](O)[C@@H](O[C@H]5[C@H](O)[C@@H](O)[C@@H](O[C@H]6[C@H](O)[C@@H](O)[C@@H](O[C@H]7[C@H](O)[C@@H](O)[C@@H](O[C@H]1[C@H](O)[C@H]2O)O[C@@H]7CO)O[C@@H]6CO)O[C@@H]5CO)O[C@@H]4CO)O[C@@H]3CO [a-cyclodextrin]		1.5	0.044			44.1			
N=C(N)NCCC[C@H](N)C(=O)O [L-arginine]		0.1	0.001			1.1			
